Laboratory results published in patent publication US20260335277A1, “CHLOROTONIL DERIVATIVES” (priority 2023, published 2026).
In brackets after ≈: the same amount, converted by molar mass. Read-outs that look alike come from different tables or passages of the source.

Experiments:
E. faecium = assay: MIC 50/90 profiling in multidrug-resistant clinical isolates; type: cell-based; conditions: Enterococcus faecium; for MIC: read-out: MIC range; for MIC50 / MIC90: E. faecium (n = 98)
Experimental: (§1) Minimal inhibitory concentration (MIC) of the compounds in the present invention was determined using broth microdilution performed according to EUCAST guidelines (ISO20776-1:2019). S. aureus ATCC29213 and E. faecalis ATCC29212 served as quality control strains.
(§2) Activity of dehalogenil against multidrug-resistant clinical isolates of S. aureus (n=100) and Enterococcus spp. […] Compared to the standard of care (linezolid, daptomycin and tigecyclin), dehalogenil MIC90 was lowered in both pathogens by 20-40-fold with unimodal distribution indicating no pre-existing resistances.

[1] = system: clinical isolates of S. aureus; assay: as above; type: cell-based; conditions: Staphylococcus aureus; S. aureus clinical isolates (n = 100)
Experimental: as §1, §2

E. faecalis ATCC-29212 = assay: MIC testing (broth microdilution, EUCAST); type: cell-based; conditions: for MIC E. faecalis: E. faecalis ATCC-29212; for MIC: Enterococcus faecalis, ATCC29212, E. faecalis ATCC-29212
Experimental: as §1

[2] = system: E. faecium DSM-17050 (vancomycin-resistant, VRE); assay: MIC testing (broth microdilution, EUCAST); type: cell-based; conditions: for MIC: Enterococcus faecium
Experimental: as §1

E. faecium DSM-20477 = assay: MIC testing (broth microdilution, EUCAST); type: cell-based; conditions: for MIC E. faecium: E. faecium DSM-20477; for MIC: Enterococcus faecium, DSM20477, E. faecium DSM-20477
Experimental: as §1

[3] = system: S. aureus N315 (methicillin-resistant, MRSA); assay: MIC testing (broth microdilution, EUCAST); type: cell-based; conditions: for MIC: Staphylococcus aureus, MRSA
Experimental: as §1

S. aureus Newman = assay: MIC testing (broth microdilution, EUCAST); type: cell-based; conditions: for MIC: Staphylococcus aureus, NEWMAN
Experimental: as §1

S. epidermidis DSM-28765 = assay: MIC testing (broth microdilution, EUCAST); type: cell-based; conditions: for MIC S. epiderm.: S. epidermidis DSM-28765; for MIC: Staphylococcus epidermidis, DSM28765, S. epidermidis DSM-28765, read-out: MIC S. epiderm.
Experimental: as §1

zebrafish larvae = assay: Toxicity in zebrafish larvae (MTC / IC50); type: in vivo; conditions: for IC50 in zebrafish larvae: exposed 3 days post fertilization, monitored 48 h
Experimental: (§3) For toxicity screening, zebrafish larvae were exposed three days post fertilization and monitored for 48 h until five days post fertilization. All malformations and pathophysiological phenotypes were noted and used to determine the inhibitory concentration (IC50) of the respective derivative against zebrafish larvae. The selectivity index (SI) was then calculated using the IC50 and the MIC of either S. aureus or P. falciparum 3D7.

S. aureus USA300LAC = assay: S. aureus blood infection (sepsis) model; type: in vivo, mouse (CD-1); conditions: 60 mg/kg
Experimental: Dehalogenil was further tested in a Staphylococcus blood infection (sepsis) model, alongside linezolid as reference compound. Mice were infected using S. aureus USA300LAC (10^8 CFU/animal) and subsequently treated with a daily total of 5, 10 or 25 mg/kg SC dehalogenil, split into two doses (8 h interval, BID regimen) until 3 days post infection.
Mice were infected intravenously using S. aureus USA300LAC (10^8 CFU/mice). Compounds were administered twice daily starting day 0 until day 3, with the daily total dose indicated. Curves were compared via Mantel-Cox test (Prism), with ***: p<0.001 and **: p<0.01.

[4] = system: mature gametocytes (stages IV and V); assay: Activity against mature gametocytes (stage IV-V), bioluminescence assay; type: cell-based, P. falciparum; conditions: Plasmodium falciparum
Experimental: Activity against gametocytes was determined using an in vitro bioluminescence assay as described previously (doi.org/10.1371/journal.pone.0035019).

[5] = Toxicity in zebrafish larvae (MTC / IC50); type: in vivo; conditions: zebrafish, zebrafish larvae
Experimental: as §3

**Q.** With CCCCCCCCCC(=O)N[C@@H](Cc1c[nH]c2ccccc12)C(=O)N[C@H](CC(N)=O)C(=O)N[C@@H](CC(=O)O)C(=O)N[C@@H]1C(=O)NCC(=O)N[C@@H](CCCN)C(=O)N[C@@H](CC(=O)O)C(=O)N[C@H](C)C(=O)N[C@@H](CC(=O)O)C(=O)NCC(=O)N[C@H](CO)C(=O)N[C@@H]([C@H](C)CC(=O)O)C(=O)N[C@@H](CC(=O)c2ccccc2N)C(=O)O[C@@H]1C [daptomycin] as the molecule, how does the MIC (E. faecium) read?
**A.** 0.5 to 4 µg/mL (≈ 0.309 to 2.47 µM)

**Q.** And the MIC50 (E. faecium)?
**A.** 2 µg/mL (≈ 1.23 µM)

**Q.** And the MIC90 (E. faecium)?
**A.** 4 µg/mL (≈ 2.47 µM)

**Q.** What about the MIC50 [1] of the same molecule?
**A.** 0.5 µg/mL (≈ 0.309 µM)

**Q.** What about the MIC90 [1] of the same molecule?
**A.** 4 µg/mL (≈ 2.47 µM)

**Q.** What does the source list for CC1C=CC=CC(C)C2C=CC3CC4(C)OC4C(C)C3C2C(=O)CC(=O)C(C)C(=O)O1 (stereo not drawn) [Dehalogenil-Epo2]?
**A.** MIC E. faecalis (E. faecalis ATCC-29212): 1.6 µg/mL (≈ 3.75 µM); MIC VRE [2]: 0.4 µg/mL (≈ 0.938 µM); MIC E. faecium (E. faecium DSM-20477): 0.8 µg/mL (≈ 1.88 µM); MIC MRSA [3]: 0.2 µg/mL (≈ 0.469 µM); MIC S. aureus (S. aureus Newman): 0.4 µg/mL (≈ 0.938 µM); MIC S. epiderm. (S. epidermidis DSM-28765): 0.8 µg/mL (≈ 1.88 µM); IC50 in zebrafish larvae (zebrafish larvae): 1.22 µM; Selectivity Index S. aureus (zebrafish larvae; zebrafish IC50 / MIC S. aureus Newman): 1.30; Selectivity Index P. falc 3D7 (zebrafish larvae; zebrafish IC50 vs P. falciparum 3D7): 6.2

**Q.** Which MIC (E. faecalis ATCC-29212) does the source give for CC1=C[C@@H](C)[C@H]2[C@@H]3C(=O)[C@@](C)(Cl)C(=O)[C@H](C)C(=O)O[C@@H](C)/C=C/C=C\[C@@H](C)[C@@H]3C=C[C@@H]2C1 [ChA-4′Me] here?
**A.** 1.6 µg/mL (≈ 3.49 µM)

**Q.** And the MIC [2]?
**A.** 0.8 µg/mL (≈ 1.74 µM)

**Q.** And the MIC (E. faecium DSM-20477)?
**A.** 0.8 µg/mL (≈ 1.74 µM)

**Q.** What about the MIC [3] of the same molecule?
**A.** 1.6 µg/mL (≈ 3.49 µM)

**Q.** And the MIC (S. aureus Newman)?
**A.** 1.6 µg/mL (≈ 3.49 µM)

**Q.** And the MIC (S. epidermidis DSM-28765)?
**A.** > 1.6 µg/mL

**Q.** With CC(=O)NC[C@H]1CN(c2ccc(N3CCOCC3)c(F)c2)C(=O)O1 [linezolid] as the molecule, how does the MIC (E. faecium) read?
**A.** 0.5 to 64 µg/mL (≈ 1.48 to 190 µM)

**Q.** And the MIC50 (E. faecium)?
**A.** 4 µg/mL (≈ 11.9 µM)

**Q.** What about the MIC90 (E. faecium) of the same molecule?
**A.** 4 µg/mL (≈ 11.9 µM)

**Q.** And the MIC50 [1]?
**A.** 4 µg/mL (≈ 11.9 µM)

**Q.** What about the MIC90 [1] of the same molecule?
**A.** 8 µg/mL (≈ 23.7 µM)

**Q.** What about the survival (S. aureus USA300LAC) of the same molecule?
**A.** survival of all animals

**Q.** With C=C1C[C@H]2C=C[C@@H]3[C@@H](C(=O)C(Cl)(Cl)C(=O)[C@H](C)C(=O)O[C@@H](C)/C=C/C=C\[C@H]3C)[C@@H]2[C@H](C)C1Cl (stereo partly drawn) [ChA-9′Cl] as the molecule, how does the MIC (E. faecalis ATCC-29212) read?
**A.** 0.4 µg/mL (≈ 0.778 µM)

**Q.** And the MIC [2]?
**A.** 0.2 µg/mL (≈ 0.389 µM)

**Q.** What about the MIC (E. faecium DSM-20477) of the same molecule?
**A.** 0.2 µg/mL (≈ 0.389 µM)

**Q.** What about the MIC [3] of the same molecule?
**A.** 0.4 µg/mL (≈ 0.778 µM)

**Q.** What about the MIC (S. aureus Newman) of the same molecule?
**A.** 0.4 µg/mL (≈ 0.778 µM)

**Q.** And the MIC (S. epidermidis DSM-28765)?
**A.** 0.4 µg/mL (≈ 0.778 µM)

**Q.** Which “MIC E. faecalis” value (E. faecalis ATCC-29212) does the source give for CC1=CC(C)C2C(C=CC3C(C)C=CC=CC(C)OC(=O)C(C)C(=O)C(Cl)=C(O)C32)C1 (stereo not drawn) [ChB1, reference compound] here?
**A.** 0.2 µg/mL (≈ 0.449 µM)

**Q.** And the “MIC VRE” value [2]?
**A.** 0.1 µg/mL (≈ 0.225 µM)

**Q.** What about the “MIC E. faecium” value (E. faecium DSM-20477) of the same molecule?
**A.** 0.1 µg/mL (≈ 0.225 µM)

**Q.** And the “MIC MRSA” value [3]?
**A.** 0.8 µg/mL (≈ 1.8 µM)

**Q.** What about the “MIC S. aureus” value (S. aureus Newman) of the same molecule?
**A.** 0.2 µg/mL (≈ 0.449 µM)

**Q.** And the “MIC S. epiderm.” value (S. epidermidis DSM-28765)?
**A.** 0.4 µg/mL (≈ 0.899 µM)

**Q.** For CC1=C[C@@H](C)[C@H]2[C@@H]3C(=O)[C@@](F)(Cl)C(=O)[C@H](C)C(=O)O[C@@H](C)/C=C/C=C\[C@@H](C)[C@@H]3C=C[C@@H]2C1 [ChA-4′F], which MIC (E. faecalis ATCC-29212) is on record?
**A.** 1.6 µg/mL (≈ 3.46 µM)

**Q.** And the MIC [2]?
**A.** 1.6 µg/mL (≈ 3.46 µM)

**Q.** And the MIC (E. faecium DSM-20477)?
**A.** 0.8 µg/mL (≈ 1.73 µM)

**Q.** What about the MIC [3] of the same molecule?
**A.** 1.6 µg/mL (≈ 3.46 µM)

**Q.** What about the MIC (S. aureus Newman) of the same molecule?
**A.** 0.8 µg/mL (≈ 1.73 µM)

**Q.** What about the MIC (S. epidermidis DSM-28765) of the same molecule?
**A.** > 6.4 µg/mL

**Q.** For CC1=CC(C)C2C(C=CC3C(C)C=CC=CC(C)OC(=O)CC(=O)CC(=O)C32)C1 (stereo not drawn) [dehalogenil-2′DM, 2′Demethyldehalogenil], which MIC (E. faecalis ATCC-29212) is on record?
**A.** 1.6 µg/mL (≈ 4.04 µM)

**Q.** What about the MIC [2] of the same molecule?
**A.** 0.8 µg/mL (≈ 2.02 µM)

**Q.** What about the MIC (E. faecium DSM-20477) of the same molecule?
**A.** 0.8 µg/mL (≈ 2.02 µM)

**Q.** What about the MIC [3] of the same molecule?
**A.** 0.8 µg/mL (≈ 2.02 µM)

**Q.** What about the MIC (S. aureus Newman) of the same molecule?
**A.** 0.8 µg/mL (≈ 2.02 µM)

**Q.** What about the MIC (S. epidermidis DSM-28765) of the same molecule?
**A.** 3.2 µg/mL (≈ 8.07 µM)

**Q.** What about the IC50 [4] of the same molecule?
**A.** 499 ± 86.8 nM

**Q.** What about the selectivity ratio ([5]; zebrafish IC50 / MIC S. aureus Newman, read-out: Selectivity Index S. aureus) of the same molecule?
**A.** 13.4

**Q.** What about the selectivity ratio ([5]; zebrafish IC50 vs P. falciparum 3D7, read-out: Selectivity Index P. falc 3D7) of the same molecule?
**A.** 66.2

**Q.** And the “IC50 in zebrafish larvae” value (zebrafish larvae)?
**A.** 27.03 µM
